Consider two substances from publication PMC6993007, “Protocol for bevacizumab purification using Ac-PHQGQHIGVSK-agarose” (MethodsX, 2019).

Series [1] relates to bevacizumab. Particulars: in words, Kd not given; ref [2]; cited from earlier work. The text has this: Bevacizumab is a monoclonal antibody, produced in CHO cells, used for the treatment of many human cancers. It is an anti-vascular endothelial growth factor (antsi-VEGF) that blocks the growth of tumor blood vessels. Nowadays its purification is achieved by affinity chromatography (AC) using protein A which is a very expensive ligand. […] This short peptide ligand has higher stability and lower cost than protein A and it can be prepared very easily by solid phase peptide synthesis. The ...

Series [2] relates to bevacizumab. Description: Bevacizumab purification by Ac-PHQGQHIGVSK-agarose affinity chromatography from the CHO cell culture. Conditions: in words; mild elution conditions. As to the method:
Material • Adsorption buffer: 20 mM sodium phosphate, pH 7.0, 1 M (NH4)2SO4 • A column containing 0.5 mL (0.5 × 2.5 cm) of Ac-PHQGQHIGVSK-agarose • Elution buffer: 20 mM sodium phosphate, pH 7.0 • Absorption UV/VIS spectrophotometer
Procedure • 1 Clarify the CHO cell culture containing bevacizumab by centrifugation or filtration. • 2 Add to the sample the amount of (NH4)2SO4 necessary to achieve a final concentration of 1 M. • 3 Equilibrate the chromatographic column containing Ac-PHQGQHIGVSK-agarose with 20 volumes of adsorption buffer. • 4 Load the column with CHO cell culture filtrate containing bevacizumab. Note: the amount of bevacizumab loaded to the column must be lower than the maximum capacity of the chromatographic matrix synthesized. • 5 Wash the column with adsorption buffer until the absorbance at 280 nm achieves the baseline value. • 6 Elute the bound protein by adding 20 mM sodium phosphate, pH 7.0. • 7 Measure total protein concentration with Bradford reagent using pure bevacizumab as the protein standard. • 8 Measure bevacizumab concentration by HPLC using a protein A analytical column as per Zou et al.. • 9 Perform sodium dodecyl sulfate polyacrylamide gel electrophoresis (SDS-PAGE) (12.5 % under reductive conditions) as described by Laemmli and stain gels with Coomassie Blue following the standard procedure.

For the substance Ac-PHQGQHIGVSK-NH2, the affinity for bevacizumab entry with bevacizumab [1] is listed as “binds bevacizumab with high affinity”. Turning to “bevacizumab: anti-vascular endothelial growth factor (anti-VEGF) monoclonal antibody, produced in CHO cells”, the “integrity of bevacizumab (mAb)” value in the series on bevacizumab [2] is reported as “preserve the integrity”.
